Results reported in PMC6149995 (2017).

What was measured:
[1] = tested on: 22AG (DNA, G4) AGGGTTAGGGTTAGGGTTAGGG; assay: circular dichroism titration; settings: 10 mM lithium cacodylate pH 7.2, 21 °C, 3 µM DNA
[2] = tested on: ds26 (DNA, duplex) CAATCGGATCGAATTCGATCCGATTG; assay: fluorescence titration; settings: K+ buffer; insignificant fluorescence reduction, fit unsuccessful; 0.5 µM ligand
[3] = tested on: 22AG (DNA, G4) AGGGTTAGGGTTAGGGTTAGGG; assay: fluorescence titration (ligand quenching, Hill fit); settings: 10 mM lithium cacodylate pH 7.2, r.t., 0.5 µM ligand, DNA titrated
[4] = tested on: Myc2345-Pu22 (DNA, G4) TGAGGGTGGGTAGGGTGGGTAA; assay: as above; settings: 100 mM K+; 10 mM lithium cacodylate pH 7.2, r.t., 0.5 µM ligand, DNA titrated
[5] = tested on: FmycT (DNA, G4) TTGAGGGTGGGTAGGGTGGGTAA; assay: FRET melting; settings: 1 mM K+, 99 mM Li+; 10 mM lithium cacodylate pH 7.2; 1 µM ligand, 0.2 µM DNA; limit stated for all other cases
[6] = tested on: F21T (DNA, G4) GGGTTAGGGTTAGGGTTAGGG; assay: FRET melting; settings: 90 mM Li+, 10 mM lithium cacodylate pH 7.2, 1 µM ligand, 0.2 µM DNA, limit stated for all other cases
[7] = 100 mM K+, 0-5 equiv ligand, conversion to antiparallel
[8] = 100 mM Na+, slightly reduced helicity, antiparallel kept

binding [1, 7] | binding [1, 8] | binding [2] | KD ([3]; 100 mM K+) | KD ([3]; 100 mM Na+) | KD [4] | ΔTm [5] | binding ([1]; 100 mM K+, needs more equivalents to rearrange) | ΔTm ([6]; 10 mM K+) | ΔTm ([6]; 10 mM Na+) | SMILES
yes | yes | no | (5.0 ± 0.3) × 10^−7 M^−1 | (0.6 ± 0.0) × 10^−7 M^−1 | (1.9 ± 0.1) × 10^−7 M^−1 | < 3 °C | – | – | – | c1ccc(-c2cnc(-c3cccc(-c4cnc(-c5cccc(-c6cnc(-c7ccccn7)o6)n5)o4)n3)o2)nc1
yes | yes | no | (2.2 ± 0.1) × 10^−7 M^−1 | (0.8 ± 0.1) × 10^−7 M^−1 | (1.7 ± 0.1) × 10^−7 M^−1 | < 3 °C | – | – | – | c1ccc(-c2cnc(-c3cccc(-c4cnc(-c5cccc(-c6cnco6)n5)o4)n3)o2)nc1
– | yes | no | (3.2 ± 0.1) × 10^−7 M^−1 | (7.2 ± 0.8) × 10^−7 M^−1 | (4.8 ± 0.3) × 10^−7 M^−1 | < 3 °C | yes | < 3 °C | < 3 °C | c1ccc(-c2cnc(-c3cccc(-c4cnc(-c5ccccn5)o4)n3)o2)nc1
